Experimental data from EP3693362B1, “PARASITIC PLANT GERMINATION REGULATOR” (National University Corporation Tokai National Higher …, priority 2017, dated 2019).

How the values were obtained:
Experiment in all cases: Affinity for strigolactone receptor, YLG probe competition (fluorescence)
Assay type in all cases: binding
Settings in all cases: competition with YLG, test range 0.01 to 10 µM, pH 7.0, read-out: IC50 values of test compounds
HTL10 = target: T1, HTL10 (Striga hermonthica, UniProt A0A0M4AH20)
T1 sequence (A0A0M4AH20 1-268): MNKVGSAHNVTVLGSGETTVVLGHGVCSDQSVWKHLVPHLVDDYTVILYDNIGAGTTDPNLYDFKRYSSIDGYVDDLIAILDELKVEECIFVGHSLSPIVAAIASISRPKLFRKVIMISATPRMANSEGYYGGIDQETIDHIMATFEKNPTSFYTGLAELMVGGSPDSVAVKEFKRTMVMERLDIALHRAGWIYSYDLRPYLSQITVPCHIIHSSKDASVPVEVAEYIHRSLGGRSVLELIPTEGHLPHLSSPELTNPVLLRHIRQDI
Procedure: (§1) PTL 1 reports that the affinity of a test compound for the strigolactone receptor can be evaluated by reacting strigolactone with a probe for evaluation of affinity for a strigolactone receptor (e.g., YLG) in the presence of the test compound, and measuring the fluorescence emitted from the decomposition product of YLG. Therefore, the compounds synthesized in Example 1 were used as the test compounds, and the affinity for the strigolactone receptor was evaluated by a similar method to the above. The details are as follows.
(§2) An Arabidopsis thaliana strigolactone receptor (AtD14) was produced in accordance with a usual method. More specifically, cDNA of the receptor was obtained by RT-PCR, and expression and purification were carried out in E. coli. Additionally, Striga strigolactone receptors were produced by the method disclosed in PTL 1 (ShHTL1: amino acid SEQ ID NO: 1, ShHTL2: amino acid SEQ ID NO: 2, ShHTL3: amino acid SEQ ID NO: 3, ShHTL4: amino acid SEQ ID NO: 4, ShHTL5: amino acid SEQ ID NO: 5, ShHTLS: amino acid SEQ ID NO: 6, ShHTL7: amino acid SEQ ID NO: 7, ShHTLS: amino acid SEQ ID NO: 8, ShHTL9: amino acid SEQ ID NO: 9, ShHTL10: amino acid SEQ ID NO: 10, and ShHTL11: amino acid SEQ ID NO: 11.)
(§3) One hundred microliters of a reaction solution containing each of the obtained strigolactone receptors ([…]), YLG (final concentration: […]), and each of the test compounds (final concentration: 0.01 to 10 µM) or the control compound (5-deoxystrigol, final concentration: 0.01 to 10 µM) as a competitive compound (100 mM HEPES, 150 mM NaCl, pH: 7.0, 0.1% DMSO) was prepared and reacted in a 96 black-well plate (Greiner). Sixty after the initiation of the reaction, fluorescence was detected at an excitation wavelength of 480 nm and a detection wavelength of 520 nm using a fluorescence detector (SpectraMax i3, manufactured by Molecular Devices), and the fluorescence intensity was measured. Based on the measurement results of fluorescence intensity, a Lineweaver-Burk plot was created to calculate the Km values, and the IC50 values of each of the test compounds and the control compound, which are competitive compounds.
(§4) In Table 7, HTL1 to HTL11 refer to strigolactone receptors (SEQ ID NOs: 1 to 11), and AtD14 refer to the Arabidopsis thaliana strigolactone receptor.

HTL11 = target: T2, HTL11 (Striga hermonthica, UniProt A0A0M4AS18)
T2 sequence (A0A0M4AS18 1-268): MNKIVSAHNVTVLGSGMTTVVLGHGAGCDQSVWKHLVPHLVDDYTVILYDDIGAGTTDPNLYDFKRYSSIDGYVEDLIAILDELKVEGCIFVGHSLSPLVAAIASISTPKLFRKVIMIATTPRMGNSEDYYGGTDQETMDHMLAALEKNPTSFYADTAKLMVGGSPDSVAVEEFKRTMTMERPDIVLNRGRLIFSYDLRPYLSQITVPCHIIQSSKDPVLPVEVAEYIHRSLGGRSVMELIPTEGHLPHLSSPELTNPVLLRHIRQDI
Procedure: as §1, §2, §3, §4

HTL4 = target: T3, HTL4 (Striga hermonthica, UniProt A0A0M4AMQ0)
T3 sequence (A0A0M4AMQ0 1-271): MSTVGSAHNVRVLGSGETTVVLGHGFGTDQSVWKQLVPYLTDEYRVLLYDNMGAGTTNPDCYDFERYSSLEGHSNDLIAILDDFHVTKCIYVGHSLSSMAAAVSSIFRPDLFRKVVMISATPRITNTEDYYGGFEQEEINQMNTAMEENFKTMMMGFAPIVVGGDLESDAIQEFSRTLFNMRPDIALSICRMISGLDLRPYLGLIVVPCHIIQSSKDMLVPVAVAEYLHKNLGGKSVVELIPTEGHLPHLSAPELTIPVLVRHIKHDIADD
Procedure: as §1, §2, §3, §4

HTL7 = target: T4, HTL7 (Striga hermonthica, UniProt A0A0M3PNA2)
T4 sequence (A0A0M3PNA2 1-271): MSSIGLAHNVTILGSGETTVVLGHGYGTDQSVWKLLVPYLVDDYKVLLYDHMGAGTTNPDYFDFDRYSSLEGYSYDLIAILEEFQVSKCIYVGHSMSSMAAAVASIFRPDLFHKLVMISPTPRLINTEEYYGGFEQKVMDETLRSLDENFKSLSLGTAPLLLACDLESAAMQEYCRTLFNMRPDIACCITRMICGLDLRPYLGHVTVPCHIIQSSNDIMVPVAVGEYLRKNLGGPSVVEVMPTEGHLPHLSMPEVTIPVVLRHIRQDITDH
Procedure: as §1, §2, §3, §4

HTL8 = target: T5, HTL8 (Striga hermonthica, UniProt A0A0M4APJ4)
T5 sequence (A0A0M4APJ4 1-272): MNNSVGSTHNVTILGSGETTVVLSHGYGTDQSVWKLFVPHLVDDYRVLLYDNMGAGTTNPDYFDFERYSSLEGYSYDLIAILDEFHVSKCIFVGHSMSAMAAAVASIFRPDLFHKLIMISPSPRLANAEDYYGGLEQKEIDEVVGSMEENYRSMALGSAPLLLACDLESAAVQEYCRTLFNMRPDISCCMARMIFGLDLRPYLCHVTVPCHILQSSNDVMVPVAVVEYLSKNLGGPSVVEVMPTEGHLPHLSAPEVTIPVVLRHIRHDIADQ
Procedure: as §1, §2, §3, §4

HTL9 = target: T6, HTL9 (Striga hermonthica, UniProt A0A0M4AGW0)
T6 sequence (A0A0M4AGW0 1-271): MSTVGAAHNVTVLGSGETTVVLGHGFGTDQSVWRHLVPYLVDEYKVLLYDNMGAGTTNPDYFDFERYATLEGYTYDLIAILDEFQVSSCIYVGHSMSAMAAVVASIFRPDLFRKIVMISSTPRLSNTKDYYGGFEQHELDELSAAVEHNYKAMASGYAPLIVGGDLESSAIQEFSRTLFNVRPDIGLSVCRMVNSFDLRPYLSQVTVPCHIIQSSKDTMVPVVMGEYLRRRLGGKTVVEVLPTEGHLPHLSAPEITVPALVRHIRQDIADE
Procedure: as §1, §2, §3, §4

SMILES | IC50 (HTL10) [nM] | IC50 (HTL11) [nM] | IC50 (HTL4) [nM] | IC50 (HTL7) [nM] | IC50 (HTL8) [nM] | IC50 (HTL9) [nM]
CC1=CC(OC=C2C(=O)OC3C4=C(CCCC4(C)C)CC23)OC1=O (stereo not drawn) [5-Ddeoxystriqol, 5-deoxystrigol, reference compound] | 620 | 1600 | 300 | 120 | 360 | 1200
CC1=CC(OC(=O)NCc2ccccc2)OC1=O (stereo not drawn) [Comparison Compound 1, reference compound] | > 10000 | 660 | > 10000 | > 10000 | > 10000 | > 10000
CCCCOc1ccc(S(=O)(=O)N2CCN(C(=O)OC3C=C(C)C(=O)O3)CC2)cc1 (stereo not drawn) [Compound 1] | > 10000 | 1800 | > 10000 | 310 | 1100 | > 10000
CCCCOc1ccc(S(=O)(=O)N2CCN(C(=O)OC3C=CC(=O)O3)CC2)cc1 (stereo not drawn) [Compound 13] | > 10000 | > 10000 | > 10000 | 750 | > 10000 | > 10000
